Data set [1] has as its system HeLa cells. Put plainly: Cytotoxicity. The settings on record: for HeLa ED50: HeLa cervical cancer cells, 3–4 days, SRB.
In data set [2] the test system is HL-60 cells. The experiment in a line: Cytotoxicity. The note with it: HL-60 leukemia cells; for HL-60 ED50: 3–4 days, SRB.
The test system of data set [3] is HT-29 cells. Put plainly: Cytotoxicity. The note with it: HT-29 colon cancer cells; for HT-29 ED50: 3–4 days, SRB.
The target in data set [4] is NF-κB p65 (Homo sapiens, UniProt Q04206). The experiment in a line: ELISA NF-κB p65 inhibition assay. The settings on record: for ELISA NF-κB IC50: NF-κB p65, nuclear extract of HeLa cells treated with compound and TNF-α; for NF-κB inhibitory activity (in words): NF-κB p65 ELISA. Format: cell-based.
Sequence of NF-κB p65 (Q04206 whole entry): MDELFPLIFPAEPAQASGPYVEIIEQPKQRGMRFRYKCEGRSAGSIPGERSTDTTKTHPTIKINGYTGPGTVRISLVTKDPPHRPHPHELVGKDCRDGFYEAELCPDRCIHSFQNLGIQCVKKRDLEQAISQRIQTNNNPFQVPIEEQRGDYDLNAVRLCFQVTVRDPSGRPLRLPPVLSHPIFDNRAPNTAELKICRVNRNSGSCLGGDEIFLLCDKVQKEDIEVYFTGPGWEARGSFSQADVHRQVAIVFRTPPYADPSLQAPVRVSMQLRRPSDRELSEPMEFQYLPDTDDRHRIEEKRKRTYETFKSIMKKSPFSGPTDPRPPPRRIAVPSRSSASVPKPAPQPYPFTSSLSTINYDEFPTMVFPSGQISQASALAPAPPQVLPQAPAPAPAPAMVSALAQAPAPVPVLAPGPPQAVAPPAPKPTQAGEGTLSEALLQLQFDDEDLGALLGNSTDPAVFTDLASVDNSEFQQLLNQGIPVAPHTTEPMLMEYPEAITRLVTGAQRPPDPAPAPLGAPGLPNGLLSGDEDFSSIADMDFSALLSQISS
The test system of data set [5] is HL-60 cells.
The test system of data set [6] is HT-29 cells. The experiment in a line: Reactive oxygen species. The class given is cell-based. The settings on record: for Potentiating effect on intracellular ROS levels in the presence of H2O2: H2O2 50 μM.
Data set [7] relates to HeLa cells.
For data set [8], the system named is HT-29 cells.
The subject of data set [9] is NFAT-1. Put plainly: NFAT-1 assay. The class given is cell-based. The note with it: 30 min incubation.
Data set [10] relates to mitochondria transmembrane potential. Put plainly: Mitochondria transmembrane potential. Format: cell-based. The settings on record: 2 h treatment, JC-1.
The subject of data set [11] is P-388 cell line. The settings on record: cited from earlier work.
In data set [12] the test system is NF-κB. The experiment in a line: NF-κB evaluation in whole cells. Format: cell-based. The note with it: HeLa cells, IL-1α stimulation; compound 8 at 5 μg/ml.

One may read the IC50 as the concentration at which inhibition is half-maximal.

Read-outs that look alike come from different tables or passages of the source. A value given as a limit tells only on which side of the number the result lay.

In the case of `C/C=C(\C)C(=O)O[C@@H]1C[C@@]2(C)[C@H]([C@@H]3C[C@@H]([C@@H]4OC4(C)C)O[C@@H]3OC(C)=O)CC[C@]2(C)[C@@H]2CC=C3C(C)(C)C(=O)C[C@H](O)[C@]3(C)[C@H]21` [Compound 2, bruceajavaninone A], in data set [1], the “HeLa ED50” value is more than 20 µg/mL. Moreover, the “HL-60 ED50” value in [2] was more than 20 µg/mL. Also, the “HT-29 ED50” value in [3] is more than 20 µg/mL. Besides, the “ELISA NF-κB IC50” value in [4] was 5.3 µg/mL.
For the compound `C/C=C(\C)C(=O)O[C@@H]1C[C@]2(C)C(=CC[C@H]2[C@@H]2C[C@@H]([C@@H]3OC3(C)C)O[C@@H]2OC(C)=O)[C@@]2(C)[C@H]1[C@@]1(C)C=CC(=O)C(C)(C)[C@@H]1C[C@H]2OC(C)=O` [Compound 4, bruceajavanone B], the “HeLa ED50” value in [1] was more than 20 µg/mL. Also, the “HL-60 ED50” value in [2] turned out to be 1.1 µg/mL. Besides, the “Cytotoxicity against HL-60 (in words)” value in data set [5] was “selective cytotoxicity against the HL-60 cell line”. The “HT-29 ED50” value in data set [3] is more than 20 µg/mL. For the same compound, the “Potentiating effect on intracellular ROS levels in the presence of H2O2” value in data set [6] is listed as “exerted a potentiating effect”. Further, the “ELISA NF-κB IC50” value in [4] is 1.0 µg/mL.
With `COC(=O)[C@@]12OC[C@]34[C@H]([C@@H](O)[C@@H]1O)[C@@]1(C)CC(=O)C(O)=C(C)[C@@H]1C[C@H]3OC(=O)[C@H](OC(=O)/C=C(\C)C(C)C)[C@@H]24` [Compound 5, bruceantin], in data set [1] (HeLa cells), the “Cytotoxicity against HeLa (in words)” value was “highly cytotoxic”. The “HeLa ED50” value in data set [1] was determined as 0.016 µg/mL. In data set [2], the “Cytotoxicity against HL-60 (in words)” value is “highly cytotoxic” and the “HL-60 ED50” value was found to be 0.0082 µg/mL. Further, in data set [3], the “Cytotoxicity against HT-29 (in words)” value is given as “highly cytotoxic” and the “HT-29 ED50” value came to 0.012 µg/mL. In addition, in data set [4], 35.7 µM corresponded to half-maximal inhibition (IC50) and the “NF-κB inhibitory activity (in words)” value was “moderate NF-κB inhibitory activity”.
With `COC(=O)[C@@]12OC[C@]34[C@H]([C@@H](O)[C@@H]1O)[C@@]1(C)CC(=O)C(O)=C(C)[C@@H]1C[C@H]3OC(=O)[C@H](OC(=O)CC(C)C)[C@@H]24` [Compound 6, bruceine A], the “Cytotoxicity against HeLa (in words)” value in data set [7] is on record as “highly cytotoxic”. The “HeLa ED50” value in data set [1] was 0.6 µg/mL. Moreover, in data set [2], the “HL-60 ED50” value came to 0.069 µg/mL. In [8], the “Cytotoxicity against HT-29 (in words)” value is recorded as “highly cytotoxic”. Further, the “Cytotoxicity against HL-60 (in words)” value in [5] is “highly cytotoxic”. Besides, in data set [3], the “HT-29 ED50” value amounted to 1.6 µg/mL. In data set [4], half-maximal inhibition (IC50) was put at 4.21 µM and the “NF-κB inhibitory activity (in words)” value is recorded as “moderate NF-κB inhibitory activity”.
Turning to `COc1cc([C@H]2Oc3cc(-c4cc(=O)c5c(O)cc(O)cc5o4)ccc3O[C@@H]2CO)ccc1O` [Compound 7, (−)-hydnocarpin], in [1], the “HeLa ED50” value was more than 20 µg/mL. Moreover, in [2], the “HL-60 ED50” value amounted to 2.6 µg/mL. In addition, the “Cytotoxicity against HT-29 (in words)” value in [8] was “moderate cytotoxicity”. Besides, the “Cytotoxicity against HL-60 (in words)” value in data set [5] is given as “moderate cytotoxicity”. In addition, the “HT-29 ED50” value in data set [3] amounted to 9.7 µg/mL. Also, in data set [4], the “ELISA NF-κB IC50” value is 11.5 µg/mL.
Consider `COc1cc(-c2cc(=O)c3c(O)cc(O)cc3o2)ccc1O` [Compound 8, chrysoeriol], for which, in data set [1], the “HeLa ED50” value was more than 20 µg/mL. Also, in [2], the “Cytotoxicity against HL-60 (in words)” value is “selective cytotoxicity against the HL-60 cell line” and the “HL-60 ED50” value stood at 0.6 µg/mL. The “NFAT translocation from the cytoplasm to the nucleus” value in data set [9] is listed as “Induced activation of NFAT was confirmed by its translocation to the nucleus”. Also, the “Effect on mitochondrial transmembrane potential” value in [10] was “able to compromise the integrity of the mitochondrial membrane to a larger extent than the other test compounds”. The “HT-29 ED50” value in data set [3] is more than 20 µg/mL. Further, the “Activity using the P-388 cell line” value in [11] is “moderately active”. Also, in [12], the “Inhibition of NF-κB translocation into the nucleus” value is reported as “showed inhibition of translocation of NF-κB into the nucleus”. In addition, the “Potentiating effect on intracellular ROS levels in the presence of H2O2” value in [6] is “exerted a potentiating effect”. Also, the “Elevation of intracellular ROS in the absence of H2O2” value in data set [6] (compound alone) is “most significant elevation of intracellular ROS”.
For `Cc1c2ccncc2c(C)c2c1[nH]c1ccccc12` [Ellipticine, ellipticine, reference compound], the “HeLa ED50” value in data set [1] stood at 3.6 µg/mL. The “HL-60 ED50” value in [2] worked out at 1.3 µg/mL. The “HT-29 ED50” value in data set [3] came to 3.5 µg/mL.
On to `COc1ccc([C@@]23Oc4cc(OC)cc(OC)c4[C@]2(O)[C@H](O)[C@H](C(=O)N(C)C)[C@H]3c2ccccc2)cc1` [Rocaglamide, reference compound], for which, in [12], the “Inhibition of NF-κB translocation into the nucleus” value is listed as “inhibited the translocation”.
As to bruceajavanone A 7-acetate [Compound 1], in data set [1], the “HeLa ED50” value was more than 20 µg/mL. In [2], the “HL-60 ED50” value is more than 20 µg/mL. For the same compound, the “HT-29 ED50” value in [3] was more than 20 µg/mL. The “ELISA NF-κB IC50” value in [4] was more than 20 µg/mL.
As for bruceajavanone C [Compound 3], the “HeLa ED50” value in data set [1] was more than 20 µg/mL. Moreover, the “HL-60 ED50” value in [2] was more than 20 µg/mL. Moreover, the “HT-29 ED50” value in data set [3] is more than 20 µg/mL. Moreover, in [4], the “ELISA NF-κB IC50” value was more than 20 µg/mL.

Values taken from paper PMC3013507 (Anticancer research, 2010).
